Molecular target: T1, human sodium/iodide symporter (hNIS) (Homo sapiens, UniProt Q92911)
T1 sequence (Q92911 1-643): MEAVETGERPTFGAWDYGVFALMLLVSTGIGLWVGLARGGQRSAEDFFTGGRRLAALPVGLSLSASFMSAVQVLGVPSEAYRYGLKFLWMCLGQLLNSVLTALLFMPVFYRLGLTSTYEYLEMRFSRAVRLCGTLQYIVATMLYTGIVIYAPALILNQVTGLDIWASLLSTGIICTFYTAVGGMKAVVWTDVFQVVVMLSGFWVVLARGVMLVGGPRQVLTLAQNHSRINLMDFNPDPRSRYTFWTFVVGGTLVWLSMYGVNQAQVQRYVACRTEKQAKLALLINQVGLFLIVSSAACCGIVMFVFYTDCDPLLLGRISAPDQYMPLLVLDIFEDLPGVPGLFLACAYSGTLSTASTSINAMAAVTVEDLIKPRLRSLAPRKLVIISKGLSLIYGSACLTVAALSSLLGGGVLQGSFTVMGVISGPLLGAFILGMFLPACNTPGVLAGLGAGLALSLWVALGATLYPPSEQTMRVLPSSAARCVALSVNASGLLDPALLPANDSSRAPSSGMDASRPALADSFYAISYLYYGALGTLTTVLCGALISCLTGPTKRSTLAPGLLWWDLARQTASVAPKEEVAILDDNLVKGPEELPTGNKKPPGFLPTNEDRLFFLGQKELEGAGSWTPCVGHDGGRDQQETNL
Type: cell-based

F[B-](F)(F)F [tetrafluoroborate]
IC50: 740 nM
